Measured values published in patent US20070191453A1, “USE OF BENZO-HETEROARYL SULFAMIDE DERIVATIVES FOR THE TREATMENT OF SUBSTANCE ABUSE AND ADDICTION” (priority 2006, published 2007).

System: selectively-bred alcohol preferring rats
Experiment: Alcohol Preferring Rats In Vivo Model (two-bottle choice)
Set-up: species or system rat
Conditions: for 6 hr Preference (alcohol preference) / 6 hr Ethanol (alcohol intake) / 24 hr Ethanol (alcohol intake) / 24 hr Preference (alcohol preference): mean ± SEM; for 6 hr Ethanol (alcohol intake): 6 h after treatment
Method: Adult male selectively-bred alcohol preferring rats (which are known in the art to be useful for the study of the effect of test compounds on voluntary alcohol intake) were grouped into three groups: vehicle and Compound #1 (50 and 100 mg/kg, p.o.). Rats were housed individually in wire mesh cages under a constant room temperature of 22±1° C. and 12:12 light-dark cycle (8:00-20:00, dark). The animals were fed Agway Prolab Rat/Mouse/Hamster 3000 formula and water ad libitum.
Alcohol intake was determined using the standard two-bottle choice method. Animals were first given free access to water in a graduated Richter tube for 2 days. Then they were given access to only a solution of 10% (v/v) ethanol for 3 consecutive days. During this period animals became accustomed to drinking from Richter tubes and to the taste and pharmacological effects of alcohol. Thereafter, they were given free access to both water and a solution of 10% alcohol for at least 4 consecutive weeks and throughout the study period. Rats had free access to food. Water and alcohol intake were recorded at 4, 6 and 24 hours after the treatment, whereas food intake was measured at 24 hour. Animals' body weight was measured every day.
After establishment of a stable baseline for alcohol, food, and water intake, rats were administered either vehicle or Compound #1 via oral gavage using a cross-over design with random assignment. To be able to compare the efficacy of these compounds on alcohol intake with an established FDA-approved drug, naltrexone, was included as a positive control. Same rats were given an oral dose of naltrexone (20 mg/kg). The interval between treatments was at least 3 days. Alcohol and water intake were recorded 4, 6 and 24 h after the drug administration and food intake was recorded at 24 hr. A total of 8-10 animals per group were used.
The results below are presented as means±SEM. Alcohol intake (g/kg) was calculated by multiplying the volume of alcohol consumed in ml by 10% and 0.7893 (ethanol density)/body weight in kg. Alcohol preference, expressed as percentage, was calculated as follows: (volume of alcohol consumed in ml/total fluid intake in ml)×100 (Rezvani and Grady, 1994; Rezvani et al., 1997). Statistical differences between drug-treated and control groups were determined by using ANOVA and Tukey Student's t test for multiple comparison.

Row | SMILES | 6 hr Preference (alcohol preference) (50 mg/kg p.o.) | 6 hr Ethanol (alcohol intake) (50 mg/kg p.o.) | 24 hr Ethanol (alcohol intake) (50 mg/kg p.o.) | 24 hr Preference (alcohol preference) (50 mg/kg p.o.) | 6 hr Preference (alcohol preference) (100 mg/kg p.o.) | 6 hr Ethanol (alcohol intake) (100 mg/kg p.o.) | 24 hr Ethanol (alcohol intake) (100 mg/kg p.o.) | 24 hr Preference (alcohol preference) (100 mg/kg p.o.) | duration of reduction in ethanol consumption compared with naltrexone (in words) (100 mg/kg vs naltrexone 20 mg/kg) | effect on ethanol consumption (in words) (at 6 h (50 and 100 mg/kg; p<0.05) and 24 h (100 mg/kg; p<0.05) post-dosing) | 6 hr Preference (alcohol preference) (naltrexone 20 mg/kg oral) | 6 hr Ethanol (alcohol intake) (naltrexone 20 mg/kg oral) | 24 hr Ethanol (alcohol intake) (naltrexone 20 mg/kg oral) | 24 hr Preference (alcohol preference) (naltrexone 20 mg/kg oral)
1 | NS(=O)(=O)NCc1csc2ccccc12 [Compound #1, N-(benzo[b]thien-3-ylmethyl)-sulfamide] | 71 ± 11% | 1.06 ± 0.25 g/kg | 4.48 ± 0.62 g/kg | 74 ± 9% | 67 ± 11% | 0.79 ± 0.24 g/kg | 4.08 ± 0.71 g/kg | 79 ± 9% | longer lasting than naltrexone | decreased ethanol consumption | – | – | – | –
2 | O=C1CC[C@@]2(O)[C@H]3Cc4ccc(O)c5c4[C@@]2(CCN3CC2CC2)[C@H]1O5 [Naltrexone, naltrexone, reference compound] | – | – | – | – | – | – | – | – | – | – | 64 ± 12% | 0.77 ± 0.24 g/kg | 4.48 ± 0.57 g/kg | 76 ± 9%
